Data published in US10201559B2, “Compositions of selenoorganic compounds and methods of use thereof” (Alltech, Inc., priority 2014, dated 2019).
Like-named read-outs stand apart in the source and are kept apart here. Square brackets hold non-standard residues; d marks the D form. Peptide text beside a SMILES is read from it. Sec = N[C@@H](C[SeH])C(=O)O

Experiments:
C2C12 cells = assay: Quantitative analysis of mitochondrial potential in C2C12 cells; type: cell-based, mouse; details: all concentrations
Method: For C2C12 cells, equal number of cells (1×10^4) were seeded on Corning 96-well clear-bottom and dark-wall cell culture plates (VWR), cultured in 10% FBS DMEM media for 24 hr., and then treated with vehicle (sterilized water), compound C and D and their sulfur analogs for 24 and 48 hrs. These vehicle- or compound-treated cells were rinsed twice with PBS, incubated with Mitotracker Orange fluorescence dye at 37° C. for 30 min, and then replaced with PBS. Mitotracker Orange fluorescence intensities (mitochondrial potential) in these living cells were determined by a Bio-TeK Synergy HT Multi-Mode Fluorescence Microplate Reader (Winooski, Vt.). Eight samples per each treatment were examined for the above analysis, and data are presented as mean±sem of eight samples.

AML-12 cells = assay: Cell viability assay, AML-12; type: cell-based, mouse
Method: (§1) Cell viability in cultured cells was determined using Promega's CellTiter96® AQueous One Solution Cell Proliferation Assay kits, according to the Manufacturer's protocol. In brief, equal number of C2C12 (1×10^4 cells/well), AML-12 (1×10^4 cells/well) and IMR-32 (2×10^4 cells/well) were seeded on 96-well clear plates (VWR) and treated with vehicle or compounds for 24, […] and/or 72 hr. Then, cultured cells were incubated with AQueous One solution (100 ul/per well) at 37° C. for 1 hr, and the absorbance of OD490 nm in each sample was determined by the Bio-Tek microplate reader. Cell viability in culture cells were determined by the subtraction of OD490 nm in cultured cells with the OD490 nm in plain culture media (without seeding of cells). Eight samples per each treatment were examined for the above analysis. Data are presented as Mean±sem of eight samples.

IMR-32 cells [1] = assay: Cell viability assay, IMR-32; type: cell-based, human
Method: as §1

[2] = test system: Adult rat brain ficoll purified mitochondria; assay: Mitochondrial bioenergetics screen (Seahorse OCR) on isolated rat brain mitochondria; type: biochemical; details: 500 ppb, 30 min at 37° C.
From the text: A water soluble extract was obtained from selenized yeast. […] We reasoned that these selenium species would be the first to be liberated/digested from selenized yeast in its passage through the intestinal tract. […] Because we were primarily interested in the potential effects of these selenium species on mitochondrial bioenergetics, it was decided to test these selenium molecules directly using mitochondria.
Selenium concentration ranges low (50 ppb), mid (500 ppb) and high (1 ppm) were initially tested as a possible range for the compounds. […] Adult rat brain ficoll purified mitochondria were incubated with the 9 compounds for 30 min at 37° C. prior to being loading into the Seahorse Biosciences flux analyzer in triplicate. We measured OCR (Oxygen Consumption Rates) parameters in three respiratory states including ATP synthesis (State III), Complex I dependent (NADH-driven) Maximum Respiratory Capacity (State VFCCP) and Complex II (FADH-driven) dependent Maximum Respiratory Capacity (State Vsucc).

IMR-32 cells [3] = assay: Quantitative analysis of mitochondrial potential in IMR-32 cells; type: cell-based, human; details: 6 hr, compared to control
Method: Similar to the above studies on AML-12 cells, the mitochondrial potential per cell in living IMR-32 cells was determined using the Bio-TeK Synergy HT Multi-Mode fluorescence microplate reader with the following modifications. To improve the attachment of IMR-32 cells to culture dishes, cell culture plates were precoated with 0.1% gelatin (Sigma, St. Louis, Mo.). 2×10^4 cells per a 96-well were seeded on gelatinized 96-well plates for the above studies. To reduce the cell dislodgment, Mitotracker orange and Hoechst 33342 fluorescent dyes (diluted in culture media) were directly added to each well after vehicle- or compound-treatments. After dye incubation, cell culture media were carefully replaced with 1× PBS for the quantitation analysis of fluorescence on the microplate reader. Eight samples per each treatment were examined for the above analysis, and the experiments were repeated at least five times. Data are presented as mean±sem of eight samples.

HEK293T cells = assay: Fluorescence analysis of mitochondrial potential in HEK293T cells; type: cell-based, human; details: dose not stated
Method: HEK293T cells were cultured in 8-chamber glass slides (1×10^4 cells/chamber) for 24 hours, and then treated with various concentrations of compounds or its respective sulfur analogs (dissolved in sterilized water) for 4.5 hr. These compound-treated cells were rinsed twice with PBS, and incubated with Mitotracker Orange Fluorescence Dye (Invitrogen) at 37° C. for 30 min, and then replaced with fresh PBS according to the Manufacturer's protocol. Then fluorescent signals (mitochondrial potential) in these living cells were recorded using a Zeiss Axio Vert.A1 fluorescence microscope (Thornwood, N.Y.). At least three samples in each treatment group were analyzed under the fluorescent microscope.

| Compound | mitochondrial potential (C2C12 cells) | cell viability (OD490 nm) (AML-12 cells; 48 hr) | cell viability (OD490 nm) (IMR-32 cells [1]; 24, 48 and 72 hr) | mitochondrial potential (bioenergetics, OCR) [2] | MT potential / mitochondrial activity in kidney cells (HEK293T cells) | other results |
| --- | --- | --- | --- | --- | --- | --- |
| Nc1ncnc2c1ncn2[C@@H]1O[C@H](CSCCC(N)C(=O)O)C(O)C1O (stereo in doubt) [compound I, S-Adenosyl-L-homocysteine, reference compound] | decreased mitochondrial potential at all concentrations | no toxic effects | slight decrease in viability |  |  |  |
| C[Se]C[C@H]1O[C@@H](n2cnc3c(N)ncnc32)[C@H](O)[C@@H]1O [Compound 9, MethylSelenoadenosine] |  |  |  | increased mitochondrial potential |  |  |
| N[C@@H](CCC(=O)O)C(=O)N[C@@H](C[SeH])C(=O)O [Compound 10, Glutamylselenocysteine] (H-Glu-[Sec]-OH) |  |  |  | inhibited mitochondrial potential |  |  |
| CSC[C@H]1O[C@@H](n2cnc3c(N)ncnc32)[C@@H](O)C1O (some centres unmarked) [compound H, 5′-Methylthioadenosine, reference compound] | decreased mitochondrial potential at all concentrations | no toxic effects | slight decrease in viability |  | incapable of stimulating mitochondrial activity | MT potential (IMR-32 cells [3]): Increased MT potential |
| CSC[C@H](NC(=O)CC[C@H](N)C(=O)O)C(=O)O [compound J, γ-L-glutamyl-methyl-L-cysteine, reference compound] |  |  |  |  | incapable of stimulating mitochondrial activity | cell viability (OD490 nm) (AML-12 cells): no toxic effects; cell viability (OD490 nm) (IMR-32 cells [1]): slight decrease in viability |
| Leucine-Threonine-Glycine-Selenomethionine-Alanine-Phenylalanine-Arginine [Compound 7] |  |  |  | inhibited mitochondrial potential |  |  |
